What was measured:
[1] = tested on: Pseudomonas aeruginosa strain H1001 fliC::luxCDABE; test: Luminescence-based assay for the non-cleaved (bound) peptides on cellulose membranes; assay type: cell-based; details: for Luminescence at the given time in minutes: 0 / Luminescence at the given time in minutes: 20 / Luminescence at the given time in minutes: 40 / Luminescence at the given time in minutes: 60 / Luminescence at the given time in minutes: 80 / Luminescence at the given time in minutes: 100 / Luminescence at the given time in minutes: 120 / Luminescence at the given time in minutes: 180 / Luminescence at the given time in minutes: 240: cellulose-bound peptide; for Luminescence at the given time in minutes: 0: 0 min; for Luminescence at the given time in minutes: 20: 20 min; for Luminescence at the given time in minutes: 40: 40 min; for Luminescence at the given time in minutes: 60: 60 min; for Luminescence at the given time in minutes: 80: 80 min; for Luminescence at the given time in minutes: 100: 100 min; for Luminescence at the given time in minutes: 120: 120 min; for Luminescence at the given time in minutes: 180: 180 min; for Luminescence at the given time in minutes: 240: 240 min; for Activity Class bound: uncleaved cellulose-bound peptides
Protocol: Luminescence-based MIC assay for the non-cleaved peptides on cellulose membranes. The peptide spots were punched out and transferred to a 96 well microtiter plate with a clear polystyrene bottom and opaque white polypropylene sides (PerkinElmer, Boston, USA). The spots were washed two times with 100% ethanol for 5 min and afterwards equilibrated five times with 100 mM Tris buffer pH 7.3 for 5 min. An overnight culture of Pseudomonas aeruginosa strain H1001 fliC::luxCDABE was diluted 1:50 in new MH medium and incubated at 37° C. to an OD600 of 0.35. This bacterial culture was diluted 1:25 into 10 mM Tris-HCl buffer, pH 7.3 containing 20 mM glucose. Fifty μl of this culture was added to all wells of the microtiter plate and incubated at 37° C. The luminescence of the strain produced by the ATP-dependent luciferase system was detected in a time dependent manner using a Tecan Spectra Fluor plus (Tecan, Austria). At the end of the experiment, the membranes were cleaned by washing the spots two times with 100% ethanol for five minutes. After removing the ethanol the membrane was air-dried.
(§1) Strains. For the killing assay a mini-Tn5-lux mutant in Pseudomonas aeruginosa H103 was used. The strain is called H1001 and contains a fliC::luxCDABE transcriptional fusion resulting in constitutive expression of luciferase. The bacterial strains used for the antimicrobial activity assays included Escherichia coli UB1005 (F-, nalA37, metB1), a wild-type Salmonella enterica ssp. Typhimurium (S. Typhimurium), wild-type Pseudomonas aeruginosa PAO1 strain H103, Enterococcus faecalis ATCC29212, Staphylococcus aureus ATCC25923, and a clinical isolate of Staphylococcus epidermidis obtained from Dr. D. Speert (Department of Medicine, University of British Columbia). Antifungal activity was tested using a lab isolate of Candida albicans obtained from Dr. B. Dill (Department of Microbiology and Immunology, University of British Columbia).
The same set of peptides, as well as the reversed sequence of Bac2A-R ([…]; SEQ ID NO: 2166), were synthesized on cellulose and left uncleaved. The production of light was initially compared in wells containing spots of Bac2A, Bac2A-R (with the reversed sequence of Bac2A), the unrelated negative-control peptide, or, as additional controls, only cellulose, or only bacteria (FIG. 2).
As a control, the negative control (unrelated) peptide Bac429 and parent peptide Bac2A (=Bac001) were used in several different wells of the microtiter plate. Luminescence (relative light units; RLU) was measured at 14 different time points, 9 of which are shown. To permit comparison of the data with the free peptide data set, the result for each peptide was classified into six different groups, like the data set with the free peptides (Table 2). […] For the soluble peptides the following classes were established: […]

[2] = tested on: Pseudomonas aeruginosa strain H1001; test: Assay for the cleaved (free, soluble) peptides from cellulose support, luminescence killing assay; assay type: cell-based; parameters: key: 1: Peptides showing stronger killing than Bac2A at a 4 to 8-fold higher dilution; Peptides showing stronger killing compared to that of Bac2A at a 4-fold higher dilution; 3: Peptides similar to Bac2A; 4: Peptides similar to Bac2A at the highest concentration but demonstrating weaker killing at a 2-fold dilution; 5: Peptides giving very weak or no killing at a 2-fold dilution; 6: Peptides with weak killing activity at the highest concentration; details: free (cleaved) peptides, killing relative to Bac2A
Protocol: Assay for the cleaved peptides from cellulose support. The peptides were cleaved from the dried membrane in an ammonia atmosphere overnight, resulting in free peptides with an amidated C-terminus. The free peptides contained two β-alanines at the C-terminus, in addition to being amidated due to the linker between the cellulose membrane and the peptide sequence. The peptide spots were punched out and transferred in a 96-well microtiter plate. Serial dilutions were carried out from the membrane spots. Four rows were filled with four controls including two with Bac2A and two with of an unrelated peptide. The other eight rows were used for serial dilution steps of the peptide variants. An overnight culture of Pseudomonas aeruginosa strain H1001 was diluted 1:500 using either LB media or 100 mM Tris buffer pH 7.3, 20 mM glucose and was added to the wells (100 μl/well) containing the peptide spots. In all other wells 50 μl were added. The microtiter plate was incubated for 30 min at 37° C. to release the peptides from the membrane. Subsequently, a dilution series were performed and the plate was incubated at 37° C. The luminescence produced by the ATP dependent luciferase system were detected in a time dependent manner using a Tecan Spectra Fluor plus.
as §1
Peptide synthesis on cellulose is a very effective and inexpensive way to investigate many different peptide variants for one particular activity. However, one of the problems of this technique is the low peptide density synthesized on the membrane, about 280 nmol per cm2. An average peptide spot used for the experiments presented is about 0.3 cm2. Therefore, an assay had to be developed that was sensitive enough to show activity with this amount of peptides. P. aeruginosa H1001 has a reporter system (e.g., a luciferase gene cassette) incorporated into the bacterial chromosome in the fliC gene (involved in flagellar biosynthesis) that is constitutively expressed. It will thus produce light if ATP is present. When this strain is killed, e.g. by peptides, the amount of light produced will decrease due to a decrease in ATP levels in the killed cells. This action can thus be monitored by detecting luminescence in a microtiter plate luminescence reader over time. The volume and amount of cells per well were optimized for this assay. After screening, the killing action was monitored with small amounts of the parent peptide Bac2A (2 μg/ml of free peptide).
Forty-nine scrambled peptides (Bac002-Bac050) were synthesized on the cellulose support and then cleaved by ammonia gas resulting in free peptides with an amidated C-terminus including the linker. The peptide spots were transferred to a 96-well microtiter plate and incubated for 30 min to dissociate the peptides from the cellulose. After serial dilution and addition of strain H1001, luminescence was recorded in a time dependent manner (FIG. 1). All 50 scrambled peptides were compared to Bac2A ([…]-NH2; SEQ ID NO: 1) by this assay (see Table 2). […] Further since all scrambled peptides had some activity, a sequence-specific interaction of the peptides with a receptor or target could be excluded.

| Sequence | Luminescence at the given time in minutes: 0 [1] | Luminescence at the given time in minutes: 20 [1] | Luminescence at the given time in minutes: 40 [1] | Luminescence at the given time in minutes: 60 [1] | Luminescence at the given time in minutes: 80 [1] | Luminescence at the given time in minutes: 100 [1] | Luminescence at the given time in minutes: 120 [1] | Luminescence at the given time in minutes: 180 [1] | Luminescence at the given time in minutes: 240 [1] | Activity Class bound [1] | Activity Class Soluble [2] |
| --- | --- | --- | --- | --- | --- | --- | --- | --- | --- | --- | --- |
| IVRVAVALRRIR [Bac005] | 3853 RLU | 6844 RLU | 5163 RLU | 4287 RLU | 3443 RLU | 2254 RLU | 1891 RLU | 1665 RLU | 1791 RLU | 5 (Peptides reducing luminescence (lux) values to between 1500 to 3000 after 240 min.) | 3 |
| LAIVRRARVRIV [Bac031] | 4646 RLU | 7357 RLU | 5808 RLU | 5146 RLU | 4145 RLU | 3815 RLU | 3472 RLU | 3130 RLU | 3247 RLU | 6 (Peptides having residual luminescence (lux) values greater than 3000 after 240 min.) | 5 |
| RAIIRRVLVRVA [Bac024] | 4164 RLU | 7630 RLU | 5586 RLU | 4358 RLU | 3256 RLU | 2398 RLU | 1727 RLU | 1384 RLU | 1373 RLU | 4 (Peptides reducing luminescence (lux) values to between 500 to 1499 after 240 min.) | 4 |
| RAIRVRRIVLAV [Bac037] | 4908 RLU | 6480 RLU | 4105 RLU | 1624 RLU | 366 RLU | 120 RLU | 54 RLU | 59 RLU | 46 RLU | 3 (Peptides similar to Bac2A resulting in lux values of less than 500 after 240 min.) | 4 |
| RARIVRVRVILA [Bac016] | 4172 RLU | 6362 RLU | 2916 RLU | 678 RLU | 142 RLU | 80 RLU | 60 RLU | 68 RLU | 22 RLU | 3 (Peptides similar to Bac2A resulting in lux values of less than 500 after 240 min.) | 2 |
| RARRVRVLIAIV [Bac036] | 5208 RLU | 7062 RLU | 5114 RLU | 3233 RLU | 1182 RLU | 394 RLU | 215 RLU | 129 RLU | 107 RLU | 3 (Peptides similar to Bac2A resulting in lux values of less than 500 after 240 min.) | 4 |
| RIVLRRAAVIRV [Bac039] | 4727 RLU | 7074 RLU | 5814 RLU | 5262 RLU | 4994 RLU | 4717 RLU | 4569 RLU | 4524 RLU | 5392 RLU | 6 (Peptides having residual luminescence (lux) values greater than 3000 after 240 min.) | 5 |
| RLRVAIVAIVRR [Bac041] | 4620 RLU | 5674 RLU | 615 RLU | 54 RLU | 68 RLU | 37 RLU | 77 RLU | 53 RLU | 37 RLU | 2 (Peptides reducing lux values to between 500 and 1000 after 40 min.) | 4 |
| RRIARVIVAVLR [Bac002] | 4340 RLU | 6090 RLU | 1631 RLU | 135 RLU | 58 RLU | 48 RLU | 35 RLU | 59 RLU | 48 RLU | 3 (Peptides similar to Bac2A resulting in lux values of less than 500 after 240 min.) | 3 |
| RRLVAIVAVRRI [Bac007] | 3943 RLU | 7157 RLU | 4403 RLU | 2010 RLU | 679 RLU | 205 RLU | 90 RLU | 89 RLU | 79 RLU | 3 (Peptides similar to Bac2A resulting in lux values of less than 500 after 240 min.) | 4 |

— patent publication US20080207522A1, “Antimicrobial Peptides” (priority 2004, published 2008)
